{"source": "patent US4500531A", "about": "“Therapeutical use of (1-cinnamoyl or 1-phenethylcarbonyl) piperazine derivatives” (priority 1982, dated 1985)", "key": {"[1]": {"test": "test of the mnesic retention of exploratory activity (habituation)", "assay_type": "in vivo, SWISS-WEBSTER male mice", "conditions": "Mus musculus, ip, 168 h, read-out: % of the diminution of the exploratory activity; for inhibition in vivo at 10 mg/kg: dose 10 mg/kg i.p."}, "[2]": {"test": "approximate acute toxicity (method of MILLER and TAINTER)", "conditions": "in vivo; for mortality: read-out: lethality", "protocol": "The approximate acute toxicity is determined according to the method described by MILLER and TAINTER in Proc. Soc. Exp. Biol. Med. 57, 261, (1944)."}, "[3]": {"test": "pharmacological study: stimulation or protection of cerebral functions", "assay_type": "in vivo", "conditions": "thorough pharmacological study", "protocol": "The stimulating or protecting activities have been shown particularly by the test of the mnesic retention of exploratory activity carried out in accordance with the following method: in an ACTIMETRE APELAB apparatus (BOISSIER and SIMON, Arch. Inter. Pharmacodyn. 158, 212, (1965), the exploratory activity of SWISS-WEBSTER male mice was measured for 5 minutes, then the animals were given an intraperitoneal injection or oral administration of the derivatives of formula (I), the salts thereof or of physiological serum. After a week, the exploratory activity of the treated animals is again measured and the effect of the mnesic retention is measured by an habituation, i.e., by a statistically significant reduction (t of STUDENT in paired groups) of the exploratory activity."}, "[4]": {"conditions": "cited from earlier work; for pharmacological activity as previously considered: up to the present, in the pharmacological field, earlier literature; for vasodilatory activity: earlier patents and literature"}, "[5]": {"conditions": "dose 3 mg/kg i.p., retest after one week, mice"}}, "note": "Where a name gives a salt, the structure may show the parent alone. Read-outs that look alike come from different tables or passages of the source.", "data": [{"compound": "COc1ccc(CCN(C)C(=O)CN2CCN(C(=O)/C=C/c3cc(OC)c(OC)c(OC)c3)CC2)cc1OC", "note": "[compound 68]", "values": [{"measurement": "inhibition in vivo at 10 mg/kg", "setting": "[1]; retest after one week, mice", "value": 15.8, "unit": "%"}, {"measurement": "LD50", "setting": "[2]; iv", "value": 200, "unit": "mg/kg"}]}, {"compound": "COc1cc(/C=C/C(=O)N2CCN(CC(=O)NC(C)C)CC2)cc(OC)c1OC", "note": "[compound 65]", "values": [{"measurement": "inhibition in vivo at 10 mg/kg", "setting": "[1]; retest after one week, mice", "value": 17.9, "unit": "%"}, {"measurement": "LD50", "setting": "[2]; iv", "value": 475, "unit": "mg/kg"}]}, {"compound": "COc1cc(/C=C\\C(=O)N2CCN(CC(=O)N3CCCC3)CC2)cc(OC)c1OC", "note": "[compound 72]", "values": [{"measurement": "inhibition in vivo at 3 mg/kg", "setting": "[1]", "value": 21, "unit": "%"}]}, {"compound": "COc1cc(/C=C\\C(=O)N2CCN(CC(=O)N3CCCC3)CC2)cc(OC)c1OC", "note": "[Code Number 72, cis 1-(3,4,5-trimethoxy)cinnamoyl 4-pyrrolidinocarbonylmethyl)piperazine, oxalate]", "values": [{"measurement": "activity in the stimulation or protection of cerebral functions", "setting": "[3]", "value": "important activities in the stimulation or protection of cerebral functions"}, {"measurement": "pharmacological activity as previously considered", "setting": "[4]; listed as Ib", "value": "inactive"}]}, {"compound": "COc1cc(/C=C/C(=O)N2CCN(CC(=O)N3CCCCCCC3)CC2)cc(OC)c1OC", "note": "[compound 67]", "values": [{"measurement": "inhibition in vivo at 3 mg/kg", "setting": "[1]; [5]", "value": 26.4, "unit": "%"}, {"measurement": "LD50", "setting": "[2]; iv", "value": 225, "unit": "mg/kg"}]}, {"compound": "CCOC(=O)CN1CCN(C(=O)/C=C/c2cc(OC)c(OC)c(OC)c2)CC1", "values": [{"measurement": "vasodilatory activity", "setting": "[4]", "value": "peripheral and coronary vasodilators"}]}, {"compound": "COc1cc(/C=C/C(=O)N2CCN(CC(=O)O)CC2)cc(OC)c1OC", "note": "[drawing 11]", "values": [{"measurement": "pharmacological activity as previously considered", "setting": "[4]", "value": "non-active"}]}, {"compound": "COc1cc(/C=C/C(=O)N2CCN(CC(=O)O)CC2)cc(OC)c1OC", "note": "[Code Number 71, trans 1-(3,4,5-trimethoxy)cinnamoyl 4-hydroxycarbonylmethyl piperazine, hydrochloride]", "values": [{"measurement": "activity in the stimulation or protection of cerebral functions", "setting": "[3]", "value": "important activities in the stimulation or protection of cerebral functions"}, {"measurement": "pharmacological activity as previously considered", "setting": "[4]; listed as Ia, hydrochloride", "value": "inactive"}]}, {"compound": "COc1cc(/C=C/C(=O)N2CCN(CC(=O)O)CC2)cc(OC)c1OC", "note": "[compound 71]", "values": [{"measurement": "inhibition in vivo at 1 mg/kg", "setting": "[1]; dose 1 mg/kg i.p., retest after one week, mice", "value": 31.9, "unit": "%"}, {"measurement": "LD50", "setting": "[2]; po", "value": 1000, "unit": "mg/kg"}, {"measurement": "mortality", "setting": "[2]; po, 1000 mg/kg p.o.", "value": 0, "unit": "%"}]}, {"compound": "COc1cc(/C=C/C(=O)N2CCN(CC(=O)N3CCCCC3)CC2)cc(OC)c1OC", "note": "[compound 66]", "values": [{"measurement": "inhibition in vivo at 3 mg/kg", "setting": "[1]; [5]", "value": 35.2, "unit": "%"}, {"measurement": "LD50", "setting": "[2]; po", "value": 2250, "unit": "mg/kg"}]}, {"compound": "COc1cc(CCC(=O)N2CCN(CC(=O)NC(C)C)CC2)cc(OC)c1OC", "note": "[compound 70]", "values": [{"measurement": "inhibition in vivo at 30 mg/kg", "setting": "[1]; dose 30 mg/kg i.p., retest after one week, mice", "value": 16.2, "unit": "%"}, {"measurement": "LD50", "setting": "[2]; po", "value": 2000, "unit": "mg/kg"}, {"measurement": "mortality", "setting": "[2]; po, 2000 mg/kg p.o.", "value": 0, "unit": "%"}]}, {"compound": "COc1cc(/C=C/C(=O)N2CCN(CC(=O)NC(C)C)CC2)cc(OC)c1O", "note": "[drawing 16]", "values": [{"measurement": "vasodilatory activity", "setting": "[4]", "value": "coronary vasodilator"}]}, {"compound": "COc1cc(/C=C\\C(=O)N2CCN(CC(=O)N3CCCC3)CC2)cc(OC)c1OC", "note": "[drawing 13]", "values": [{"measurement": "pharmacological activity as previously considered", "setting": "[4]", "value": "non-active"}]}, {"compound": "COc1cc(/C=C/C(=O)N2CCN(CC(=O)NC(C)C)CC2)cc(OC)c1O", "note": "[compound 69]", "values": [{"measurement": "inhibition in vivo at 3 mg/kg", "setting": "[1]; [5]", "value": 23.8, "unit": "%"}, {"measurement": "LD50", "setting": "[2]; po", "value": 2000, "unit": "mg/kg"}, {"measurement": "mortality", "setting": "[2]; po, 2000 mg/kg p.o.", "value": 0, "unit": "%"}]}, {"compound": "COc1cc(CCC(=O)N2CCN(CC(=O)NC(C)C)CC2)cc(OC)c1OC", "note": "[drawing 15]", "values": [{"measurement": "vasodilatory activity", "setting": "[4]", "value": "peripheral and coronary vasodilators"}]}, {"compound": "COc1cc(/C=C/C(=O)N2CCN(CC(=O)N3CCCC3)CC2)cc(OC)c1OC", "values": [{"measurement": "vasodilatory activity", "setting": "[4]", "value": "peripheral and coronary vasodilators"}]}]}
